Paper PMC9348551, “An amelogenin-based peptide hydrogel promoted the odontogenic differentiation of human dental pulp cells” (Regenerative Biomaterials, 2022)
Square brackets hold non-standard residues; d marks the D form. Ends that are not written are not given here. Peptide text beside a SMILES is read from it. * marks the point of attachment. Acetyl(2-naphthyl) = O=C(Cc1ccc2ccccc2c1)*

Key:
[1] = tested on: human dental pulp cells (HDPCs); assay type: cell-based
Experimental: The HDPCs (1 × 10^5 cells/well) in the six well plates were treated with basal medium, AMG-P8, L-gel, D-gel, EMPs for 21 days. After fixed in the 4% paraformaldehyde for 15 min, the mineralized nodules were stained with 1% Alizarin Red (Solarbio, Beijing, China) for 10 min and washed in double-distilled water to eliminate floating colors. Images were captured with a Ti-S microscope (Nikon, Japan). For quantitative analysis of calcified nodules, 10% cetylpyridinium chloride (CPC; Sigma, USA) was used to dissolve Alizarin red. One milliliter of 10% CPC per well was added and shook for 30 min. The absorbance value was measured at 560 nm using a multifunctional microplate reader (Tecan Ltd., Männedorf, Switzerland).

[2] = Proteinase K stability (compound remaining); assay type: in vitro ADME; details: Tritirachium album (source organism of proteinase K); initial concentration 1.0 mM, 0.1 mg/ml proteinase K, 24 h; read-out: compound remaining after 24 h
Experimental: (§1) Both Nap-GFFY-G-KWYQNMIR (Comp. 1) and Nap-G^DF^DF^DY-G-KWYQNMIR (Comp. 2) could form hydrogels by heating and cooling, namely L-gel and D-gel (Fig. 1A–C). The ultrastructures of the L-gel and D-gel were both nanofibers (Fig. 1D and E). The mechanical properties of the L-gel and D-gel remained relatively constant (Fig. 1F and G). […] The CAC values of the AMG-P8, L-gel and D-gel were 354.91, 84.25 and 86.62 μM, respectively (Fig. 1I and J). […] That was the result of an initial concentration of 1.0 mM AMG-P8 incubated with 0.1 mg/ml of proteinase K for 24 h, whereas the L-gel and D-gel still retained 62.21% and 78.06% of the compound, respectively, after 24 h (Fig. 1K).
(§2) Figure 1. Chemical structures of (A) AMG-P8 (KWYQNMIR); (B) Comp.1 (Nap-GFFYGKWYQNMIR) and (C) Comp.2 (Nap-G^DF^DF^DYGKWYQNMIR). TEM and optical images of (D) L-gel and (E) D-gel. Dynamic frequency and strain sweep measurements of L-gel and D-gel (F, G). (H) Circular dichroism spectra of L-gel and D-gel. Determination of CAC values of L-gel (I) and D-gel (J). (K) Compound remaining of the AMG-P8, L-gel and D-gel for an initial concentration of 1.0 mM incubated with 0.1 mg/ml of proteinase K for 24 h. TEXT PRINTED IN THE PICTURE: (I) L- gel: CAC=84.25 μM | (J) D- gel: CAC=86.62 μM DOUBTS OF THE COPYIST ABOUT THIS PICTURE: L- gel, CAC: small print, 84.25 could be 84.26 or 64.25 / D- gel, CAC: small print, 86.62 could be 88.62 or 86.82

[3] = tested on: MAPK-ERK1/2 pathways in HDPCs; test: Western blot of phospho-ERK1/2 in HDPCs; assay type: cell-based, human; details: 10 µM inhibitor pretreatment 1 h then D-gel 1 h, P < 0.05, in words
Experimental: The HDPCs (2 × 10^5) were treated under different conditions for different time points. The EMPs (1 µM) were also added to the HDPCs as an extra control group. Then the cells were harvested and lysed in 200 µL lysis buffer (Beyotime, Shanghai, China) and centrifuged (12 000 rpm for 10 min, at 4°C). The protein concentration was evaluated with a BCA kit (Solarbio, Beijing, China). The protein was mixed with 5× loading buffer and heated at 95°C for 5 min, separated by precast PAGE gel (Beyotime, Shanghai, China) and transferred to polyvinylidene fluoride membranes. After blocked at room temperature for 15 min, then incubated with the primary antibody (DSPP, DMP-1, Smad2/3, c jun, p-c jun, c fos, p-c fos, c jun B) (Santa Cruz, California, USA), [p-ERK1/2, ERK1/2, alkaline phosphatase (ALP), p-Smad2/3, GAPDH] (Beyotime, Shanghai, China). Then, the membranes were incubated with the goat anti-rabbit IgG-HRP secondary antibody or goat anti-mouse IgG-HRP secondary antibody for 1 h, respectively. Then, an ultrasensitive chemiluminescence kit (Beyotime, Shanghai, China) was used to detect the protein bands. A chemiluminescence imager (Bio-Rad, California, USA) was used to scan the protein bands. The Image Lab software was used to analyze the relative protein expression levels. […]

[4] = tested on: human dental pulp cells (HDPCs); test: Western blot of DSPP, DMP-1 and ALP in HDPCs; assay type: cell-based; details: D-gel and U0126 for 7 and 14 days, P < 0.05, in words
Experimental: The healthy premolars and third molars extracted for orthodontic or other reasons were collected from patients (14–22 years old) visited Tianjin Stomatological Hospital. This study had been approved by the Ethics Committee of Tianjin Stomatological Hospital (Approval number: 2018012). The informed consent was obtained from each patient. The dental pulp tissue was dissected within 4 h after tooth extraction, minced into 1 mm^3 pieces with sterile scissors and transferred to a cell culture flask containing alpha-modified Eagle’s medium (α-MEM, Gibco, California, USA) supplemented with 10% fetal bovine serum (FBS, Gibco, New York, NY, USA), 100 U/ml penicillin and 100 μg/ml streptomycin (PS, Sigma, California, USA). The cells were cultured in a 5% CO2 incubator at 37°C. The HDPCs at 3–4 passage were used in this study.
The HDPCs (2 × 10^5) were treated under different conditions for different time points. The EMPs (1 µM) were also added to the HDPCs as an extra control group. Then the cells were harvested and lysed in 200 µL lysis buffer (Beyotime, Shanghai, China) and centrifuged (12 000 rpm for 10 min, at 4°C). The protein concentration was evaluated with a BCA kit (Solarbio, Beijing, China). The protein was mixed with 5× loading buffer and heated at 95°C for 5 min, separated by precast PAGE gel (Beyotime, Shanghai, China) and transferred to polyvinylidene fluoride membranes. […]

[5] = Solubility of the peptide; assay type: physicochemical; details: in words
proteinase K = proteinase K (Parengyodontium album, UniProt P06873); test: Proteinase K stability (compound remaining); assay type: in vitro ADME; details: initial concentration 1.0 mM, 0.1 mg/ml proteinase K
Experimental: as §1, §2

Sequence of proteinase K (P06873 106-384, species assumed): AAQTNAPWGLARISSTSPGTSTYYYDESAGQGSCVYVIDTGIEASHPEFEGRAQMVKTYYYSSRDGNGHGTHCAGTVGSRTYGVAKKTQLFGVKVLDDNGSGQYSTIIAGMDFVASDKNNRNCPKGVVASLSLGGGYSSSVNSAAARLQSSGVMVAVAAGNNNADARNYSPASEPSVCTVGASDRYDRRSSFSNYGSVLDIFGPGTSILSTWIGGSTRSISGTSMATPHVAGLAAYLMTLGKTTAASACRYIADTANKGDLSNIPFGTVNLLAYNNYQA

Molecule: CC[C@H](C)[C@H](NC(=O)[C@H](CCSC)NC(=O)[C@H](CC(N)=O)NC(=O)[C@H](CCC(N)=O)NC(=O)[C@H](Cc1ccc(O)cc1)NC(=O)[C@H](Cc1c[nH]c2ccccc12)NC(=O)[C@H](CCCCN)NC(=O)CNC(=O)[C@@H](Cc1ccc(O)cc1)NC(=O)[C@@H](Cc1ccccc1)NC(=O)[C@@H](Cc1ccccc1)NC(=O)CNC(=O)Cc1ccc2ccccc2c1)C(=O)N[C@@H](CCCNC(=N)N)C(=O)O [D-gel] ({Acetyl(2-naphthyl)}-G[dF][dF][dY]GKWYQNMIR-OH)
- Alizarin red OD value as percent of the EMPs group [1]: about 80%
- remaining at 24 h, 1 mM [2]: 78.1%

Molecule: CC[C@H](C)[C@H](NC(=O)[C@H](CCSC)NC(=O)[C@H](CC(N)=O)NC(=O)[C@H](CCC(N)=O)NC(=O)[C@H](Cc1ccc(O)cc1)NC(=O)[C@H](Cc1c[nH]c2ccccc12)NC(=O)[C@H](CCCCN)NC(=O)CNC(=O)[C@H](Cc1ccc(O)cc1)NC(=O)[C@H](Cc1ccccc1)NC(=O)[C@H](Cc1ccccc1)NC(=O)CNC(=O)Cc1ccc2ccccc2c1)C(=O)N[C@@H](CCCNC(=N)N)C(=O)O [L-gel] ({Acetyl(2-naphthyl)}-GFFYGKWYQNMIR-OH)
- remaining at 24 h, 1 mM [2]: 62.2%

Molecule: N#CC(=C(/N)Sc1ccccc1N)/C(C#N)=C(/N)Sc1ccccc1N [U0126]
- effect on D-gel-induced phospho-ERK1/2 upregulation [3]: specifically blocked
- effect on D-gel-induced expression of DSPP and ALP [4]: suppressed

Molecule: KWYQNMIR [AMG-P8]
- solubility [5]: good solubility
- time within which the peptide was hydrolyzed (proteinase K): ≤ 30 min
